Laboratory results published in patent publication EP0360850B1, “ANTIMICROBIAL AGENTS” (GIVAUDAN-ROURE (INTERNATIONAL) S.A., priority 1988, dated 1989).
≈ marks a conversion by molar mass, not a printed value. Read-outs that look alike come from different tables or passages of the source.

Tests used:
[1] = test system: Pseudomonas aeruginosa; assay: Preservative test in cosmetic lotion, weekly reinoculation; format: cell-based
Method: (§1) a. Cutting Oil Emulsions. […] Various aliquots of a 6% solution of the test compound in ethanol were added to cutting oil emulsions prepared by diluting Kutwell® 30 cutting oil concentrate 1 to 30 with water. These samples were inoculated with a culture of Ps. aeruginosa and incubated at 28°C on a rotary shaker. At weekly intervals, the samples were examined for microorganisms and then reinoculated and incubated. […] Cosmetic compositions. […] Serial dilutions of the compounds in dimethylformamide were added to a prepared, sterile cosmetic lotion of the following composition:
(§2) Samples of the lotion containing varying levels of the acrylonitrile derivatives were divided into two portions; one portion was inoculated with a spore suspension of A. niger, and the other portion with a 24-hour nutrient broth culture of Ps. aeruginosa. These two organisms are frequently found as contaminants in cosmetic products. The samples were incubated for a 4-week period with weekly examinations for the growth of the organisms. At weekly intervals, the samples were also reinoculated with the test organisms. Presence of fungal growth was determined macroscopically while bacterial contamination was determined by streaking one 4-mm loopful (0.01ml) of the lotion onto the surface of trypticase glucose extract agar (Baltimore Biological Laboratories, Baltimore, MD) containing 0.005% triphenyl tetrazolium chloride and letheen antidote. Results of these tests showing the minimum inhibitory concentration through the 4-week incubation period are tabulated in Table IV and show, once again, that the compounds where R is methyl or ethyl show a broad spectrum activity for the preservation of cosmetic products against the type of fungus and bacterium most likely to cause problems in cosmetics.

[2] = test system: Aspergillus niger; assay: as above; format: cell-based; details: A.n.
Method: as §1, §2

[3] = read-out: Minimum Inhibitory Concentration Week 1
[4] = read-out: Minimum Inhibitory Concentration Week 2
[5] = read-out: Minimum Inhibitory Concentration Week 3
[6] = read-out: Minimum Inhibitory Concentration Week 4
[7] = Week 1, read-out: Minimum Inhibitory Concentration Week 1
[8] = Week 2, weekly reinoculation, read-out: Minimum Inhibitory Concentration Week 2
[9] = Week 3, weekly reinoculation, read-out: Minimum Inhibitory Concentration Week 3
[10] = Week 4, weekly reinoculation, read-out: Minimum Inhibitory Concentration Week 4

Row | MIC ([1]; cosmetic lotion, P.a., Week 1, read-out: Minimum Inhibitory Concentration Week 1) [µg/mL] | Structure (SMILES) | MIC [1, 3] [µg/mL] | MIC [1, 4] [µg/mL] | MIC [1, 5] [µg/mL] | MIC [1, 6] [µg/mL] | MIC [2, 7] [µg/mL] | MIC [2, 8] [µg/mL] | MIC [2, 9] [µg/mL] | MIC [2, 10] [µg/mL]
1 | – | CSC=C(Br)C#N [Example 1, α-Bromo-β-methylthio-acrylonitrile] | < 7.8 | < 7.8 | < 7.8 | < 7.8 | < 7.8 | < 7.8 | < 7.8 | < 7.8
2 | – | CSC=C(Cl)C#N [Example 2, α-Chloro-β-methylthio-acrylonitrile] | 31 to 62 (≈ 232 to 464 µM) | 15 to 31 (≈ 112 to 232 µM) | 15 to 31 (≈ 112 to 232 µM) | 15 to 31 (≈ 112 to 232 µM) | < 7.8 | < 7.8 | < 7.8 | < 7.8
3 | – | CCSC=C(Cl)C#N [Example 3, α-chloro-β-ethylthio-acrylonitrile] | 250 to 500 (≈ 1690 to 3390 µM) | 125 to 250 (≈ 847 to 1690 µM) | 125 to 250 (≈ 847 to 1690 µM) | 125 to 250 (≈ 847 to 1690 µM) | < 7.8 | < 7.8 | < 7.8 | < 7.8
4 | – | CCSC=C(Br)C#N [Example 4, α-bromo-β-ethylthio-acrylonitrile] | 31 to 62 (≈ 161 to 323 µM) | 31 to 62 (≈ 161 to 323 µM) | 31 to 62 (≈ 161 to 323 µM) | 31 to 62 (≈ 161 to 323 µM) | < 7.8 | < 7.8 | < 7.8 | < 7.8
5 | – | CCCSC=C(Cl)C#N [Example 5] | > 2000 | 1000 to 2000 (≈ 6190 to 12400 µM) | 1000 to 2000 (≈ 6190 to 12400 µM) | 500 to 1000 (≈ 3090 to 6190 µM) | 125 to 250 (≈ 773 to 1550 µM) | 125 to 250 (≈ 773 to 1550 µM) | 125 to 250 (≈ 773 to 1550 µM) | 125 to 250 (≈ 773 to 1550 µM)
6 | > 2000 | CCCCSC=C(Cl)C#N [Example 6] | – | – | – | – | – | – | – | –
